≈ marks a conversion by molar mass, not a printed value.
Key:
Format in all cases: cell-based
GSC-12diff = assay: MTS cell viability assay, differentiated glioblastoma stem cells GSC-12diff; conditions: Table 7, 72 hours, read-out: IC50 against GSC-12diff
Description: (§1) Primary viability screening: (1) the synthesized compounds 3a to 13d were respectively dissolved in DMSO to prepare a 40 μg/mL cannabicyclol and cannabicyclol derivative solutions.
(§2) (2) A control group: a 200 μL DMSO solvent.
(§3) (3) The solutions of compounds 3a to 13d were diluted in a twofold gradient to obtain cannabicyclol and cannabicyclol derivative solutions at concentrations of 40 μg/mL, 20 μg/mL, 10 μg/mL, 5 μg/mL, 2.5 μg/mL, 1.25 μg/mL, and 0.625 μg/mL, and 0.3125 μg/mL, respectively.
(§4) (4) Three glioblastoma stem cells (GSC-3, GSC-12, and GSC-18), three pancreatic cancer cell-derived stem cells (PANC-1-CSC, BXPC-3-CSC, and ASPC1-CSC), three liver cancer cell-derived stem cells (HepG2-CSC, MHCC97H-CSC, and SMMC7721-CSC), HEK-293T cells, 16 tumor cells (U251, U87, T98G, PANC1, BXPC3, ASPC1, HepG2, MHCC97H, SMMC7721, PC3, SKOV3, MDA-MB231, A549, HCT116, HEC-1B, MKN28), and differentiated glioblastoma stem cells (GSC-3diff and GSC-12diff) derived from GSC-3 and GSC-12 (all of the cells were provided by the Laboratory of Tumor Animal Model Preparation and Application Research, West China Hospital, Sichuan University) were inoculated into a 96-well plate at a concentration of 2×10^4 cells/well, and 100 μL of culture medium was then added to each well; […]
(§5) (10) The absorbance value at 490 nm was measured on an enzyme labeling apparatus, and the IC50 value was calculated.

[1] = test system: glioblastoma cell line U251; assay: Soft agar colony (clone) formation, U251; conditions: crystal violet, FIG. 4, compound 3a 0, 5 and 5 [sic] μg/mL
Description: […] of low-melting-point agarose was dissolved in 12.5 mL of ddH2O to prepare a 3.2% low-melting-point agarose gel. The low-melting-point agarose gel was sterilized by autoclaving at 121° C. and 0.12 MPa for 20 minutes. After sterilization, the low-melting-point agarose gel was maintained at 60° C. in a drying oven for further use.
1.75 mL of 3.2% sterile low-melting-point agarose gel was taken, 5.25 mL of the corresponding complete medium was added, and the two were mixed thoroughly using a pipette to prepare a base gel at a concentration of 0.8%.
1 mL of the base gel was added to each well of a 6-well plate, ensuring that the base gel evenly covered the bottom of each well. The plate was placed at 4° C. for 5 minutes to allow the gel to solidify. After the gel had fully solidified, the plate was warmed at 37° C. for 5 minutes.
6 cells/cell lines (U251, SMMC7721, GSC-3, GSC-12, SMMC7721-CSC, and HepG2-CSC) were individually digested with 1× trypsin for 3 minutes. The corresponding complete culture medium (same as in the application example 1) was added to terminate the digestion. Cells were centrifuged at 1000 rpm for 3 minutes, and the cells were collected and counted. A total of 5×10^3 cells were added to each well, each group was set up with three replicates. […]

[2] = test system: 9 types of cancer stem cells; assay: MTS cell viability assay, summary over 9 types of cancer stem cells; conditions: FIG. 3, CBL solution at different concentrations
Description: as §1, §2, §3, §4, §5

SMILES: CCCCCc1cc(O)c2c(c1)OC1(C)CCC3C1C2C3(C)C (stereo not drawn) [Compound 3a, cannabicyclol]
- IC50 (GSC-12diff): 29.6 µg/mL (≈ 94.3 µM)
- colony formation of U251 [1]: significantly inhibited
- cell viability of 9 types of cancer stem cells at different concentrations [2]: decreased with increasing concentrations

From patent publication US20250353825A1, “CANNABICYCLOL DERIVATIVES AND PREPARATION METHODS THEREOF” (priority 2023, published 2025)
